Measurements as given in patent US12570642B2, “GLP-IR modulating compounds” (Gilead Sciences, Inc., priority 2021, dated 2026).

Each compound was assayed against GLP-1R (Homo sapiens, UniProt P43220) (assay: GLP-1R Activation - cAMP Assay). Details: cAMP increase in CHO cells stably expressing GLP-1R; each compound run on one of the two cAMP assays (Assay 1 or Assay 2, not specified).
Chain of GLP-1R (P43220 24-463): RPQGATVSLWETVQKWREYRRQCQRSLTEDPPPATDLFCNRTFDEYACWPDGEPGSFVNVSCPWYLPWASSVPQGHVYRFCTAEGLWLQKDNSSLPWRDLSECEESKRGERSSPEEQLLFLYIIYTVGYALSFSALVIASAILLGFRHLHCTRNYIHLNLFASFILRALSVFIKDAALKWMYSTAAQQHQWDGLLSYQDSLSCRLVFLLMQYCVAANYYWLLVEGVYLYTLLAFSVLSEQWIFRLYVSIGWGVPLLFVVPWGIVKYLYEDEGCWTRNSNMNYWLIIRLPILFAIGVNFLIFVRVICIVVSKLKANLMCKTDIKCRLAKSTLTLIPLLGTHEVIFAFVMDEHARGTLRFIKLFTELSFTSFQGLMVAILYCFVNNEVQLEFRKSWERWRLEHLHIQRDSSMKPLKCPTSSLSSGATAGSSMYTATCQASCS
Type: cell-based
In short: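 CHO cells stably expressing GLP-1R, plated at 1,000 cells/well overnight, then equilibrated 1 h in HBSS with 20 mM Hepes and 0.1% BSA. Agonist added as 10-point dose response for 30 min at 37 °C. cAMP measured by HTRF (Cisbio Gs Dynamic kit); EC50 from sigmoidal fit.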
Compound CC1(C)COCC1n1c(Cc2cc(F)c(-c3cccc(OCc4cnc(Cl)cc4F)n3)cc2F)nc2ccc(C(=O)O)cc21 (stereo not drawn) [Example 295, 2-(4-(6-((6-chloro-4-fluoropyridin-3-yl)methoxy)pyridin-2-yl)-2,5-difluorobenzyl)-1-(4,4-dimethyltetrahydrofuran-3-yl)-1H-benzo[d]imidazole-6-carboxylic acid] has an EC50 of 0.042 nM. Work on CC1(C)COCC1n1c(Cc2cc(F)c(-c3cccc(OCc4ncc(Cl)cc4F)n3)cc2F)nc2ccc(C(=O)O)cc21 (stereo not drawn) [Example 296, 2-(4-(6-((5-chloro-3-fluoropyridin-2-yl)methoxy)pyridin-2-yl)-2,5-difluorobenzyl)-1-(4,4-dimethyltetrahydrofuran-3-yl)-1H-benzo[d]imidazole-6-carboxylic acid] yielded an EC50 of 0.066 nM. Compound CC1(C)COC[C@H]1n1c(Cn2cc(F)c(-c3cccc(OCc4ccc(Cl)cc4)n3)cc2=O)nc2ccc(C(=O)O)cc21 [Example 297, (S)-2-((6-((4-chlorobenzyl)oxy)-5′-fluoro-2′-oxo-[2,4′-bipyridin]-1′(2′H)-yl)methyl)-1-(4,4-dimethyltetrahydrofuran-3-yl)-1H-benzo[d]imidazole-6-carboxylic acid] has an EC50 of 0.151 nM. With CC1(C)COC[C@H]1n1c(Cc2ccc(-c3ccnc(OCc4ccc(C#N)cc4F)n3)cc2F)nc2c(F)cc(C(=O)O)cc21 [Example 298, (S)-2-(4-(2-((4-cyano-2-fluorobenzyl)oxy)pyrimidin-4-yl)-2-fluorobenzyl)-1-(4,4-dimethyltetrahydrofuran-3-yl)-4-fluoro-1H-benzo[d]imidazole-6-carboxylic acid] the EC50 was 0.663 nM. Compound CC1(C)COC[C@H]1n1c(Cc2cc(F)c(-c3ccc(F)c(OCc4ccc(Cl)cc4)n3)cc2F)nc2ccc(C(=O)O)cc21 [Example 299, (S)-2-(4-(6-((4-chlorobenzyl)oxy)-5-fluoropyridin-2-yl)-2,5-difluorobenzyl)-1-(4,4-dimethyltetrahydrofuran-3-yl)-1H-benzo[d]imidazole-6-carboxylic acid] has an EC50 of 0.342 nM. With CC1(C)COC[C@H]1n1c(Cn2cc(F)c(-c3ccc(F)c(OCc4ccc(Cl)cc4)n3)cc2=O)nc2ccc(C(=O)O)cc21 [Example 300, (S)-2-((6-((4-chlorobenzyl)oxy)-5,5′-difluoro-2′-oxo-[2,4′-bipyridin]-1′(2′H)-yl)methyl)-1-(4,4-dimethyltetrahydrofuran-3-yl)-1H-benzo[d]imidazole-6-carboxylic acid] the EC50 was 0.268 nM. With Cc1cc(Cc2nc3ccc(C(=O)O)cc3n2[C@@H]2COCC2(C)C)c(Cl)cc1-c1ccnc(OCc2ccc(C#N)cc2)n1 [Example 301, (S)-2-(2-chloro-4-(2-((4-cyanobenzyl)oxy)pyrimidin-4-yl)-5-methylbenzyl)-1-(4,4-dimethyltetrahydrofuran-3-yl)-1H-benzo[d]imidazole-6-carboxylic acid] the EC50 was 0.714 nM. CC1(C)COC[C@H]1n1c(Cc2c(F)cc(-c3cccc(OCc4ccc(Cl)cc4F)n3)cc2F)nc2ccc(C(=O)O)cc21 [Example 302, (S)-2-(4-(6-((4-chloro-2-fluorobenzyl)oxy)pyridin-2-yl)-2,6-difluorobenzyl)-1-(4,4-dimethyltetrahydrofuran-3-yl)-1H-benzo[d]imidazole-6-carboxylic acid] gave an EC50 of 0.181 nM. CC1(C)COC[C@H]1n1c(Cc2c(F)cc(-c3ccc(F)c(OCc4ccc(Cl)cc4F)n3)cc2F)nc2ccc(C(=O)O)cc21 [Example 303, (S)-2-(4-(6-((4-chloro-2-fluorobenzyl)oxy)-5-fluoropyridin-2-yl)-2,6-difluorobenzyl)-1-(4,4-dimethyltetrahydrofuran-3-yl)-1H-benzo[d]imidazole-6-carboxylic acid] was tested, and the EC50 was 0.17 nM. Compound CC1(C)COC[C@H]1n1c(Cc2c(F)cc(-c3cccc(OCc4ccc(Cl)cc4F)n3)cc2F)nc2c(F)cc(C(=O)O)cc21 [Example 305, (S)-2-(4-(6-((4-chloro-2-fluorobenzyl)oxy)pyridin-2-yl)-2,6-difluorobenzyl)-1-(4,4-dimethyltetrahydrofuran-3-yl)-4-fluoro-1H-benzo[d]imidazole-6-carboxylic acid] has an EC50 of 0.125 nM. In the case of CC1(C)COC[C@H]1n1c(Cc2c(F)cc(-c3ccc(F)c(OCc4ccc(Cl)cc4F)n3)cc2F)nc2c(F)cc(C(=O)O)cc21 [Example 306, (S)-2-(4-(6-((4-chloro-2-fluorobenzyl)oxy)-5-fluoropyridin-2-yl)-2,6-difluorobenzyl)-1-(4,4-dimethyltetrahydrofuran-3-yl)-4-fluoro-1H-benzo[d]imidazole-6-carboxylic acid], the EC50 is reported as 0.123 nM. CC1(C)COC[C@H]1n1c(Cc2c(F)cc(-c3ccc(F)c(OCc4ccc(C#N)cc4F)n3)cc2F)nc2c(F)cc(C(=O)O)cc21 [Example 307, (S)-2-(4-(6-((4-cyano-2-fluorobenzyl)oxy)-5-fluoropyridin-2-yl)-2,6-difluorobenzyl)-1-(4,4-dimethyltetrahydrofuran-3-yl)-4-fluoro-1H-benzo[d]imidazole-6-carboxylic acid] was tested, and the EC50 was 0.508 nM. Compound CC1(C)COC[C@H]1n1c(Cc2ccc(-c3ccc(F)c(OCc4ccc(C#N)cc4)n3)cc2F)nc2c(F)cc(C(=O)O)cc21 [Example 308, (S)-2-(4-(6-((4-cyanobenzyl)oxy)-5-fluoropyridin-2-yl)-2-fluorobenzyl)-1-(4,4-dimethyltetrahydrofuran-3-yl)-4-fluoro-1H-benzo[d]imidazole-6-carboxylic acid] has an EC50 of 0.18 nM. COc1nnc(COc2cccc(-c3ccc(Cc4nc5c(F)cc(C(=O)O)cc5n4[C@@H]4COCC4(C)C)c(F)c3)n2)s1 [Example 309, (S)-1-(4,4-dimethyltetrahydrofuran-3-yl)-4-fluoro-2-(2-fluoro-4-(6-((5-methoxy-1,3,4-thiadiazol-2-yl)methoxy)pyridin-2-yl)benzyl)-1H-benzo[d]imidazole-6-carboxylic acid] was tested, and the EC50 was 0.368 nM. CC1(C)COC[C@H]1n1c(Cc2c(F)cc(-c3ccc(F)c(OCc4ccc(Cl)cc4)n3)c(F)c2F)nc2c(F)cc(C(=O)O)cc21 [Example 310, (S)-2-(4-(6-((4-chlorobenzyl)oxy)-5-fluoropyridin-2-yl)-2,3,6-trifluorobenzyl)-1-(4,4-dimethyltetrahydrofuran-3-yl)-4-fluoro-1H-benzo[d]imidazole-6-carboxylic acid] was tested, and the EC50 was 0.032 nM. CC1(C)COC[C@H]1n1c(Cc2c(F)cc(-c3ccc(F)c(OCc4ccc(C#N)cc4)n3)c(F)c2F)nc2c(F)cc(C(=O)O)cc21 [Example 316, (S)-2-(4-(6-((4-cyanobenzyl)oxy)-5-fluoropyridin-2-yl)-2,3,6-trifluorobenzyl)-1-(4,4-dimethyltetrahydrofuran-3-yl)-4-fluoro-1H-benzo[d]imidazole-6-carboxylic acid] was tested, and the EC50 was 0.14 nM. With Cc1cc(Cc2nc3c(F)cc(C(=O)O)cc3n2[C@@H]2COCC2(C)C)c(Cl)cc1-c1ccnc(OCc2ccc(Cl)cc2F)n1 [Example 317, (S)-2-(2-chloro-4-(2-((4-chloro-2-fluorobenzyl)oxy)pyrimidin-4-yl)-5-methylbenzyl)-1-(4,4-dimethyltetrahydrofuran-3-yl)-4-fluoro-1H-benzo[d]imidazole-6-carboxylic acid] the EC50 was 0.451 nM. Cc1cc(Cc2nc3ccc(C(=O)O)cc3n2[C@@H]2COCC2(C)C)c(Cl)cc1-c1ccnc(OCc2ccc(Cl)cc2F)n1 [Example 318, (S)-2-(2-chloro-4-(2-((4-chloro-2-fluorobenzyl)oxy)pyrimidin-4-yl)-5-methylbenzyl)-1-(4,4-dimethyltetrahydrofuran-3-yl)-1H-benzo[d]imidazole-6-carboxylic acid] was tested, and the EC50 was 0.745 nM. With Cc1cc(Cc2nc3c(F)cc(C(=O)O)cc3n2[C@@H]2COCC2(C)C)c(Cl)cc1-c1ccnc(OCc2ccc(C#N)cc2F)n1 [Example 319, (S)-2-(2-chloro-4-(2-((4-cyano-2-fluorobenzyl)oxy)pyrimidin-4-yl)-5-methylbenzyl)-1-(4,4-dimethyltetrahydrofuran-3-yl)-4-fluoro-1H-benzo[d]imidazole-6-carboxylic acid] the EC50 was 0.346 nM. Work on Cc1cc(Cc2nc3ccc(C(=O)O)cc3n2[C@@H]2COCC2(C)C)c(Cl)cc1-c1ccnc(OCc2ccc(C#N)cc2F)n1 [Example 320, (S)-2-(2-chloro-4-(2-((4-cyano-2-fluorobenzyl)oxy)pyrimidin-4-yl)-5-methylbenzyl)-1-(4,4-dimethyltetrahydrofuran-3-yl)-1H-benzo[d]imidazole-6-carboxylic acid] yielded an EC50 of 0.827 nM. Compound CC1(C)COC[C@H]1n1c(Cc2c(F)cc(-c3cccc(OCc4ccc(C#N)cc4F)n3)cc2F)nc2ccc(C(=O)O)cc21 [Example 321, (S)-2-(4-(6-((4-cyano-2-fluorobenzyl)oxy)pyridin-2-yl)-2,6-difluorobenzyl)-1-(4,4-dimethyltetrahydrofuran-3-yl)-1H-benzo[d]imidazole-6-carboxylic acid] has an EC50 of 0.083 nM. Work on CC1(C)COC[C@H]1n1c(Cc2c(F)cc(-c3ccc(F)c(OCc4ccc(C#N)cc4F)n3)cc2F)nc2ccc(C(=O)O)cc21 [Example 322, (S)-2-(4-(6-((4-cyano-2-fluorobenzyl)oxy)-5-fluoropyridin-2-yl)-2,6-difluorobenzyl)-1-(4,4-dimethyltetrahydrofuran-3-yl)-1H-benzo[d]imidazole-6-carboxylic acid] yielded an EC50 of 0.346 nM. COc1cc(Cl)ncc1COc1nc(-c2cc(Cl)c(Cc3nc4ccc(C(=O)O)cc4n3[C@@H]3COCC3(C)C)cc2C)ccc1F [Example 323, (S)-2-(2-chloro-4-(6-((6-chloro-4-methoxypyridin-3-yl)methoxy)-5-fluoropyridin-2-yl)-5-methylbenzyl)-1-(4,4-dimethyltetrahydrofuran-3-yl)-1H-benzo[d]imidazole-6-carboxylic acid] was tested, and the EC50 was 0.734 nM. COc1cc(Cl)ncc1COc1nc(-c2ccc(Cc3nc4c(F)cc(C(=O)O)cc4n3[C@@H]3COCC3(C)C)c(F)c2)ccc1F [Example 324, (S)-2-(4-(6-((6-chloro-4-methoxypyridin-3-yl)methoxy)-5-fluoropyridin-2-yl)-2-fluorobenzyl)-1-(4,4-dimethyltetrahydrofuran-3-yl)-4-fluoro-1H-benzo[d]imidazole-6-carboxylic acid] gave an EC50 of 0.049 nM.
